Measured values published in PubChem BioAssay (NCI).
Several values for one entry are separate records, joined by “and”; a condition that tells them apart may be missing. Equal values may be shown once.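 Each compound was tested at five concentrations against cells in 96-well plates for 48 hours. GI50: concentration for 50% inhibition of growth. TGI marks complete inhibition of growth.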

How the values were obtained:
Assay in all cases: NCI anticancer screen, dose series, 48 h
HS 578T breast = system: HS 578T breast
T-47D breast = system: T-47D breast
NCI/ADR-RES ovarian = system: NCI/ADR-RES ovarian
BT-549 breast = system: BT-549 breast
DU-145 prostate = system: DU-145 prostate
XF 498 CNS = system: XF 498 CNS
SNB-78 CNS = system: SNB-78 CNS
DLD-1 colon = system: DLD-1 colon

SMILES | GI50 (HS 578T breast) | TGI (HS 578T breast) | GI50 (T-47D breast) | TGI (T-47D breast) | GI50 (NCI/ADR-RES ovarian) | TGI (NCI/ADR-RES ovarian) [µM] | GI50 (BT-549 breast) | TGI (BT-549 breast) [µM] | GI50 (DU-145 prostate) | TGI (DU-145 prostate) | TGI (XF 498 CNS) [µM] | TGI (SNB-78 CNS) [µM] | TGI (DLD-1 colon) [µM]
Cc1cc(N2CCCC2)nc(N(CCCNc2ccnc3cc(Cl)ccc23)Cc2ccc3c(c2)OCO3)n1 | 1.74 µM | 4.21 µM | 1.42 µM | 4.66 µM | 1.43 µM | 3.92 | – | – | – | – | – | – | –
Cn1cc(-c2ccc(CNc3cc(-c4cnc5cc(OCCCN6CCCC6)ccn45)ncn3)cc2)cn1 | 3.52 µM | 26.2 µM | 18.7 µM | 43.1 µM | 5.11 µM | > 100 | 12.6 µM | 27.2 | 15.1 µM | 31.5 µM | – | – | –
S=c1ssc(Sc2ccccn2)c1Cl | – | – | 17 µM | 34.6 µM | 13.9 µM | 26.8 | – | – | 6.52 µM | 20.2 µM | – | – | –
N#Cc1ccccc1NC(=O)c1ccccc1 | – | – | – | – | – | – | – | – | – | – | > 100 | > 100 | > 100
CN(C)c1ccc(C(N)=O)cn1 | – | > 100 µM | – | – | – | > 100 | – | > 100 | – | > 100 µM | – | – | –
O=[N+]([O-])c1nccn1CC1OC(n2ccnc2[N+](=O)[O-])C(O)C(O)C1O (stereo not given) | – | > 100 µM | – | > 100 µM | – | – | – | > 100 | – | – | – | – | –
Cn1cc(-c2ccc3c(c2)CCN3C(=O)Cc2cccc(C(F)(F)F)c2)c2c(N)ncnc21 | 2.76 µM | 19.1 µM | 3.32 µM | 20.2 µM | 4.64 µM | 38.8 | 1.82 µM | 12.4 | 2.5 µM | 19.5 µM | – | – | –
Fc1ccc(Nc2nccc(-c3c(-c4ccc(C(F)(F)F)cc4)nn4ncccc34)n2)cc1F | > 25 µM | > 25 µM | > 25 µM | > 25 µM | > 25 µM | > 25 | > 25 µM | > 25 | > 25 µM | > 25 µM | – | – | –
CC(C)(Br)C(=O)/C=C/c1ccccc1 | – | > 60.3 µM | – | > 52 µM | – | > 75.5 | – | 3.76 | – | 22.9 µM | – | – | –
CCc1c2c(nc3cccc(N)c13)-c1cc3c(c(=O)n1C2)COC(=O)[C@]3(O)CC | – | > 100 µM | – | > 100 µM | 0.0164 µM | > 100 | 0.00656 µM | 0.0218 | 0.00161 µM | > 100 µM | – | – | –
CCCCCc1c(C)[nH]c(/C=C2\N=C(c3ccc[nH]3)C=C2Oc2ccc(Cl)cc2)c1C | 0.126 µM and 0.0271 µM | 0.65 µM and 0.4 µM | 0.0709 µM and 0.0329 µM | 2.06 µM and 6.01 µM | 0.377 µM and 0.387 µM | 18.8 | 0.222 µM and 0.352 µM | 19.7 | 0.0837 µM and 0.0201 µM | 3.04 µM and 2.91 µM | – | – | –
C[C@H](CSC(=O)c1ccccc1)C(=O)N1c2ccccc2C[C@H]1C(=O)O | – | > 100 µM | – | > 100 µM | – | > 100 | – | > 100 | – | > 100 µM | – | – | –
CCOC(=O)c1cnn(-c2ccnc3c(C(F)(F)F)cccc23)c1N | 24.8 µM | > 100 µM | > 100 µM | > 100 µM | > 100 µM | > 100 | 70.7 µM | > 100 | > 100 µM | > 100 µM | – | – | –
C/C(=N\NC(N)=O)C(CN(C)C)C(c1ccccc1)c1c(O)c2ccccc2oc1=O (stereo not given) | – | > 100 µM | – | > 100 µM | – | > 100 | – | > 100 | – | > 100 µM | – | – | –
COc1cc2cc(Oc3ccc(NC(=O)c4ccc(Cl)c(C(F)(F)F)c4)cc3)c(C)nc2cc1OC | 16.6 µM | 64 µM | 5.69 µM | 99.6 µM | 4.21 µM | > 100 | 8.86 µM | 70.2 | 26.2 µM | > 100 µM | – | – | –
Fc1ccc(Nc2nc(NCCNc3ccnc4cc(Cl)ccc34)nc(N3CCOCC3)n2)cc1 | 7.32 µM | 28.9 µM | 10.9 µM | 27.4 µM | 9.36 µM | 26.5 | 8.67 µM | 22 | 8.68 µM | 21.1 µM | – | – | –
COc1cnc2c(c1)C(=O)c1c-2n(CCCN2CCCC2)c(=O)c2cc(Cl)ccc12 | 6.87 µM | 17.9 µM | 1.21 µM | 18.9 µM | 0.222 µM | 8.86 | 3.8 µM | 12.9 | – | – | – | – | –
CCN1C(=O)N(CC)C2C1NN=c1s/c(=C3\C(=O)N(C)c4ccccc43)c(=O)n12 (stereo not given) | 0.542 µM | > 39.9 µM | 0.632 µM | > 100 µM | 0.729 µM | 38.7 | 1.39 µM | 37.9 | 2.16 µM | > 100 µM | – | – | –
CC(C)OC(=O)c1ccc2[nH]c(O)c(C(=Nc3ccc(N(C)C(=O)CN4CCN(C)CC4)cc3)c3ccccc3)c2c1 | 0.0994 µM | 1.15 µM | 1.2 µM | 3.6 µM | – | – | 1.28 µM | 2.68 | 0.408 µM | 1.63 µM | – | – | –
CCOC(=O)N1CCN(S(=O)(=O)c2oc(-c3ccc(Cl)cc3)nc2C#N)CC1 | 4.2 µM | 23.8 µM | 2.29 µM | 5.94 µM | 12.2 µM | 47.6 | 2.22 µM | 5.6 | 2.48 µM | 6.31 µM | – | – | –
COc1ccc(/C=C2\CCCC3=C2NC(C)=NC3c2ccc(OC)c(OC)c2)cc1OC (stereo not given) | 39.1 µM | > 100 µM | 14.7 µM | > 100 µM | 15.2 µM | > 100 | 23.7 µM | > 100 | 16.5 µM | > 100 µM | – | – | –
C/C1=C\CC[C@@](C)(O)[C@@H]2CC3[C@@H](OC(=O)C34CC4)[C@@H](O2)[C@H](C)CCC1 (stereo not given in full) | – | – | 47.2 µM | > 100 µM | 17 µM | 34 | – | – | – | – | – | – | –
CCCCC[C@H]1C/C=C2/C(=O)C(Cl)=C[C@@H]2C/C=C\CCCC(=O)O[C@@H](CCCCC)C/C=C2/C(=O)C(Cl)=C[C@@H]2C/C=C\CCCC(=O)O1 | 0.709 µM | 16.7 µM | 0.39 µM | 1.18 µM | 2.44 µM | 9.46 | 0.33 µM | 0.836 | 0.494 µM | 1.74 µM | – | – | –
CCc1c[nH]c2ncnc(N3CC[C@@](N)(CNC(=O)c4ccc(F)cc4F)C3)c12 | 18.2 µM | 75.2 µM | 30.8 µM | > 100 µM | 83.9 µM | > 100 | 17 µM | 55.3 | 42.2 µM | > 100 µM | – | – | –
